Test results: article PMC3395220 (Journal of Medicinal Chemistry, 2012)
Read-outs that look alike come from different tables or passages of the source.

Legend:
COLO 205 [1] = conditions: read-out: Average GI50; COLO205, colon; ref historical data at the NCI; cited from earlier work
MDA-MB-231/ATCC [2] = conditions: read-out: Average GI50; MDA-MB-231, breast; ref historical data at the NCI; cited from earlier work
OVCAR-8 [3] = conditions: read-out: Average GI50; OVCAR-8, ovarian; ref historical data at the NCI; cited from earlier work
SF-295 [4] = conditions: read-out: Average GI50; SF-295, CNS; ref historical data at the NCI; cited from earlier work
SK-MEL-5 [5] = conditions: read-out: Average GI50; SK-MEL-5, melanoma; ref historical data at the NCI; cited from earlier work
A549/ATCCC [6] = conditions: read-out: Average GI50; A549, NSCL; ref historical data at the NCI; cited from earlier work
IGROV1 [7] = conditions: read-out: Average GI50; IGROV 1, ovarian; ref historical data at the NCI; cited from earlier work
[8] = test system: panel of 12 tumor cell lines implanted in mice; experiment: NCI hollow fiber assay; assay type: in vivo; conditions: for hollow fiber assay total score: 12 tumor cell lines, daily ip for four days
U251 [9] = conditions: read-out: Average GI50; U251, CNS; ref historical data at the NCI; cited from earlier work
TK-10 = assay type: cell-based, human; conditions: 10^Δ2-x, relative to compound 2
OVCAR-8 [10] = assay type: cell-based, human; conditions: 10^Δ2-x, relative to compound 2
BT-549 = assay type: cell-based, human; conditions: 10^Δ2-x, relative to compound 2
NCI/ADR-RES = experiment: cells; assay type: cell-based, human; conditions: 10^Δ2-x, relative to compound 2
T-47D = assay type: cell-based, human; conditions: 10^Δ2-x, relative to compound 2
MDA-MB-231/ATCC [11] = assay type: cell-based, human; conditions: 10^Δ2-x, relative to compound 2
SN12C = assay type: cell-based, human; conditions: 10^Δ2-x, relative to compound 2
786-0 = assay type: cell-based, human; conditions: 10^Δ2-x, relative to compound 2
KM12 = assay type: cell-based, human; conditions: 10^Δ2-x, relative to compound 2
SF-268 = assay type: cell-based, human; conditions: 10^Δ2-x, relative to compound 2
K-562 = assay type: cell-based, human; conditions: 10^Δ2-x, relative to compound 2
HCT-116 = assay type: cell-based, human; conditions: 10^Δ2-x, relative to compound 2
OVCAR-3 = assay type: cell-based, human; conditions: 10^Δ2-x, relative to compound 2
CCRF-CEM = assay type: cell-based, human; conditions: 10^Δ2-x, relative to compound 2
SK-MEL-5 [12] = assay type: cell-based, human; conditions: 10^Δ2-x, relative to compound 2
U251 [13] = assay type: cell-based, human; conditions: 10^Δ2-x, relative to compound 2
M14 = assay type: cell-based, human; conditions: 10^Δ2-x, relative to compound 2
A549/ATCCC [14] = assay type: cell-based, human; conditions: 10^Δ2-x, relative to compound 2
OVCAR-4 = assay type: cell-based, human; conditions: 10^Δ2-x, relative to compound 2
EKVX = assay type: cell-based, human; conditions: 10^Δ2-x, relative to compound 2
COLO 205 [15] = assay type: cell-based, human; conditions: 10^Δ2-x, relative to compound 2
SF-539 = assay type: cell-based, human; conditions: 10^Δ2-x, relative to compound 2
OVCAR-5 = assay type: cell-based, human; conditions: 10^Δ2-x, relative to compound 2
IGROV1 [16] = assay type: cell-based, human; conditions: 10^Δ2-x, relative to compound 2
RXF 393 = assay type: cell-based, human; conditions: 10^Δ2-x, relative to compound 2
HL-60(TB) = assay type: cell-based, human; conditions: 10^Δ2-x, relative to compound 2
SNB-75 = assay type: cell-based, human; conditions: 10^Δ2-x, relative to compound 2
HCC-2998 = assay type: cell-based, human; conditions: 10^Δ2-x, relative to compound 2
LOX IMVI = assay type: cell-based, human; conditions: 10^Δ2-x, relative to compound 2
PC-3 = assay type: cell-based, human; conditions: 10^Δ2-x, relative to compound 2
SNB-19 = assay type: cell-based, human; conditions: 10^Δ2-x, relative to compound 2
HOP-92 = assay type: cell-based, human; conditions: 10^Δ2-x, relative to compound 2
HOP-62 = assay type: cell-based, human; conditions: 10^Δ2-x, relative to compound 2
ACHN = assay type: cell-based, human; conditions: 10^Δ2-x, relative to compound 2
RPMI-8226 = assay type: cell-based, human; conditions: 10^Δ2-x, relative to compound 2
UACC-62 = assay type: cell-based, human; conditions: 10^Δ2-x, relative to compound 2
NCI-H460 = assay type: cell-based, human; conditions: 10^Δ2-x, relative to compound 2
60 cancer cell lines = experiment: cells; assay type: cell-based, human; conditions: Homo sapiens
SK-MEL2 = assay type: cell-based, human; conditions: 10^Δ2-x, relative to compound 2
SR = assay type: cell-based, human; conditions: 10^Δ2-x, relative to compound 2
SF-295 [17] = assay type: cell-based, human; conditions: 10^Δ2-x, relative to compound 2
MCF7 = assay type: cell-based, human; conditions: 10^Δ2-x, relative to compound 2
CAKI-1 = assay type: cell-based, human; conditions: 10^Δ2-x, relative to compound 2
A498 = assay type: cell-based, human; conditions: 10^Δ2-x, relative to compound 2
[18] = test system: COLO-205 (colon), A549 (non-small cell lung) and BXCP3 (pancreas); experiment: cells; assay type: cell-based; conditions: 72 h, read-out: average GI50 (50% of growth inhibition)
HCT-15 = assay type: cell-based, human; conditions: 10^Δ2-x, relative to compound 2
NCI-H226 = assay type: cell-based, human; conditions: 10^Δ2-x, relative to compound 2
UACC-257 = assay type: cell-based, human; conditions: 10^Δ2-x, relative to compound 2
UO-31 = assay type: cell-based, human; conditions: 10^Δ2-x, relative to compound 2
SK-MEL28 = assay type: cell-based, human; conditions: 10^Δ2-x, relative to compound 2
MOLT-4 = assay type: cell-based, human; conditions: 10^Δ2-x, relative to compound 2
NCI-H23 = assay type: cell-based, human; conditions: 10^Δ2-x, relative to compound 2
HS578T = assay type: cell-based, human; conditions: 10^Δ2-x, relative to compound 2
MDA-MB-468 = assay type: cell-based, human; conditions: 10^Δ2-x, relative to compound 2
NCI-H522 = assay type: cell-based, human; conditions: 10^Δ2-x, relative to compound 2
HT29 = assay type: cell-based, human; conditions: 10^Δ2-x, relative to compound 2
SW-620 = assay type: cell-based, human; conditions: 10^Δ2-x, relative to compound 2
MDA-MB-435 = assay type: cell-based, human; conditions: 10^Δ2-x, relative to compound 2
DU-145 = assay type: cell-based, human; conditions: 10^Δ2-x, relative to compound 2
SK-MEL-2 melanoma cells = experiment: Subcutaneous SK-MEL-2 melanoma xenograft; assay type: in vivo, athymic nu/nu mice; conditions: ip 8 mg/kg q4dx3, positive control

mithramycin [Compound 1]
GI50 (COLO 205 [1]): 63 nM
GI50 (MDA-MB-231/ATCC [2]): 166 nM
GI50 (OVCAR-8 [3]): 79 nM
GI50 (SF-295 [4]): 79 nM
GI50 (SK-MEL-5 [5]): 63 nM
GI50 (A549/ATCCC [6]): 79 nM
GI50 (IGROV1 [7]): 158 nM
hollow fiber assay total score [8]: 58/96
hollow fiber assay intraperitoneal score ([8]; intraperitoneal implants): 34/48
hollow fiber assay subcutaneous score ([8]; subcutaneous implants): 24/48
GI50 (U251 [9]): 63 nM

CO[C@H](C(=O)C(C)=O)[C@@H]1Cc2cc3cc(O[C@H]4C[C@@H](O[C@H]5C[C@@H](O)[C@H](O)[C@@H](C)O5)[C@H](O)[C@@H](C)O4)c(C)c(O)c3c(O)c2C(=O)[C@H]1O[C@H]1C[C@@H](O[C@H]2C[C@@H](O[C@H]3C[C@H](O)[C@H](O)[C@@H](C)O3)[C@H](O)[C@@H](C)O2)[C@H](O)[C@@H](C)O1 [Compound 11, demycarosyl-3D-β-D-digitoxosyl-mithramycin SDK]
activity improvement factor (TK-10): 1.50
activity improvement factor (OVCAR-8 [10]): 2.11
activity improvement factor (BT-549): 1.26
activity improvement factor (NCI/ADR-RES): 4.68
activity improvement factor (T-47D): 1.32
activity improvement factor (MDA-MB-231/ATCC [11]): 2.00
activity improvement factor (SN12C): 1.45
activity improvement factor (786-0): 2.43
activity improvement factor (KM12): 2.32
activity improvement factor (SF-268): 1.66
activity improvement factor (K-562): 1.26
activity improvement factor (HCT-116): 1.30
activity improvement factor (OVCAR-3): 3.43
activity improvement factor (CCRF-CEM): 1.16
activity improvement factor (SK-MEL-5 [12]): 1.24
activity improvement factor (U251 [13]): 1.35
activity improvement factor (M14): 2.75
activity improvement factor (A549/ATCCC [14]): 1.68
activity improvement factor (OVCAR-4): 2.88
activity improvement factor (EKVX): 1.48
activity improvement factor (COLO 205 [15]): 1.60
activity improvement factor (SF-539): 1.58
activity improvement factor (OVCAR-5): 2.57
activity improvement factor (IGROV1 [16]): 3.24
activity improvement factor (RXF 393): 1.91
activity improvement factor (HL-60(TB)): 3.09
activity improvement factor (SNB-75): 2.75
activity improvement factor (HCC-2998): 4.79
activity improvement factor (LOX IMVI): 1.51
activity improvement factor (PC-3): 4.37
activity improvement factor (SNB-19): 2.57
activity improvement factor (HOP-92): 1.50
activity improvement factor (HOP-62): 3.39
activity improvement factor (ACHN): 2.09
activity improvement factor (RPMI-8226): 0.75
activity improvement factor (UACC-62): 0.91
activity improvement factor (NCI-H460): 1.19
GI50 (60 cancer cell lines; read-out: Mean GI50): 28 nM
GI50 (60 cancer cell lines; read-out: Mean log(GI50) (converted)): 28.2 nM
activity improvement factor (SK-MEL2): 2.24
activity improvement factor (SR): 1.22
hollow fiber assay total score [8]: 48/96
activity improvement factor (SF-295 [17]): 2.32
activity improvement factor (MCF7): 0.65
activity improvement factor (CAKI-1): 1.82
activity improvement factor (A498): 0.68
GI50 [18]: 300 to 1300 nM
activity improvement factor (HCT-15): 5.82
activity improvement factor (NCI-H226): 1.32
activity improvement factor (UACC-257): 1.17
activity improvement factor (UO-31): 1.30
activity improvement factor (SK-MEL28): 1.30
activity improvement factor (MOLT-4): 1.76
activity improvement factor (NCI-H23): 2.79
activity improvement factor (HS578T): 1.76
activity improvement factor (MDA-MB-468): 2.14
activity improvement factor (NCI-H522): 0.70
activity improvement factor (HT29): 3.13
activity improvement factor (SW-620): 1.22
activity improvement factor (MDA-MB-435): 1.70
activity improvement factor (DU-145): 3.63

COc1cccc2c1C(=O)c1c(O)c3c(c(O)c1C2=O)C[C@@](O)(C(=O)CO)C[C@@H]3O[C@H]1C[C@H](N)[C@H](O)[C@H](C)O1 [doxorubicin, reference compound]
growth of SK-MEL-2 human melanoma xenografts (SK-MEL-2 melanoma cells): markedly delayed

CO[C@H](C(=O)[C@@H](O)[C@@H](C)O)[C@@H]1Cc2cc3cc(O[C@H]4C[C@@H](O[C@H]5C[C@@H](O)[C@H](O)[C@@H](C)O5)[C@H](O)[C@@H](C)O4)c(C)c(O)c3c(O)c2C(=O)[C@H]1O[C@H]1C[C@@H](O[C@H]2C[C@@H](O[C@H]3C[C@H](O)[C@H](O)[C@@H](C)O3)[C@H](O)[C@@H](C)O2)[C@H](O)[C@@H](C)O1 [Compound 2, demycarosyl-3D-β-D-digitoxosyl-mithramycin, reference compound]
GI50 (60 cancer cell lines; read-out: Mean GI50): 51 nM
